{"source": "patent US7432301B2", "about": "“Use of S-nitrosothiol signaling to treat disordered control of breathing” (University of Virginia Patent Foundation, priority 2001, dated 2008)", "key": {"[1]": {"system": "respiratory centers of the NTS", "assay": "Minute ventilation (VE) by whole-body plethysmography after bilateral microinjection into the NTS of freely behaving, conscious rats", "assay_type": "in vivo, rat", "settings": "for effect on VE: excess amount, n=3, P=NS; for increase in VE (minute ventilation): 1 nmol injected into NTS, conscious rats; for VE change from baseline: administered at NTS, dose not given (FIG. 1C); for onset/decay characteristics of the VE response: after injection into NTS, compared with hypoxia and return to normoxia (FIGS. 1A, 1B)", "from_the_text": "To test the hypothesis that SNOs stimulate respiratory centers of the NTS to increase VE, the ability of endogenous SNOs to increase VE in freely behaving, conscious rats using whole-body plethysmography was examined.\n(§1) A dual cannula (22G; Plastics One) was implanted close to the nucleus of the solitary tract according to standard stereotaxic coordinates (−14.0 mm bregma, 0.5 mm off midline, 7.0 mm depth; see Paxinos, G. & Watson, C. The Rat Brain in Stereotaxic Coordinates (Academic, New York, 1986), figure 74) through a hole drilled into the occipital skull of male Sprague-Dawley rats (approximately 250 g; pentobarbital anaesthesia). Placement was confirmed histologically after protocol completion. After recovery for 48 h (return to normal feeding and sleep/waking patterns), breath-by-breath ventilation was measured using the barometric method previously described (Gozal et al., J. Appl. Physiol. 81, 2068-2077 (1996)) after simultaneous, bilateral 0.1-ul injections in the freely behaving animal."}, "[2]": {"target": "T1, γ-glutamyl transpeptidase (GGT) (Rattus norvegicus, UniProt P07314)", "T1 construct": "from tissue; host or cells: nucleus tractus solitarius (brainstem) of living male Sprague-Dawley rats", "T1 sequence (P07314 whole entry)": "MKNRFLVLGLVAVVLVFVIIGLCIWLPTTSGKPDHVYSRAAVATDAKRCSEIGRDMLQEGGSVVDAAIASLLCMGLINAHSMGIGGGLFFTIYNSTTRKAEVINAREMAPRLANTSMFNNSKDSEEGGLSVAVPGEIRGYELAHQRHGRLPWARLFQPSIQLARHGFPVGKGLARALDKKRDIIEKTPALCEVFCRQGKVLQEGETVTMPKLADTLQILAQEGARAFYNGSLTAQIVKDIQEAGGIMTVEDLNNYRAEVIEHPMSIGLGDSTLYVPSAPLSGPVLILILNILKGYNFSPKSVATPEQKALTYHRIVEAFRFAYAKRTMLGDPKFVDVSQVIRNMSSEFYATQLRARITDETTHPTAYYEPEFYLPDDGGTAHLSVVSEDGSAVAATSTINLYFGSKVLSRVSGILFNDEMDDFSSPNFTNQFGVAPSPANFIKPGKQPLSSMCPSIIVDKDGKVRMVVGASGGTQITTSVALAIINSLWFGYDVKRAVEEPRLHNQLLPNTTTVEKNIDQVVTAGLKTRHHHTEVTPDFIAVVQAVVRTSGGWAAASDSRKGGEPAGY", "assay": "Effect of GGT inhibition (acivicin pre-treatment of NTS) on ventilatory effects of SNOs and on ventilatory offset", "assay_type": "in vivo", "settings": "for SNO-stimulated VE increase after GGT inhibition: SNO 10 nmol microinjection after pre-treatment with acivicin 7.5 nmol (FIG. 2A)", "from_the_text": "CGSNO (10 nmol) stimulated VE increases that were not modified by acivicin (P=NS; n=6). FIG. 2B represents the data generated from a hypoxic ventilatory response in GGT-deficient mice (+/+, wild type; +/−, heterozygotes; −/−, GGT-deficient). Lowest VE during the 30 s after cessation of hypoxia is expressed as percent change from pre-hypoxia baseline (P<0.0001; n=8 each group).\nEndothelial transport and targeted neuronal biological activity of GSNO may depend, under certain circumstances, on biochemical modifications such as cleavage by GGT to form CGSNO. […] Moreover, normal ventilatory offset (that is, the gradual return to baseline of VE after recovery from hypoxia that prevents apnea) was inhibited by acivicin. […] This distinction may have pharmacological implications.\nas §1"}, "[3]": {"assay": "Relative stability of deoxygenated blood-derived SNOs", "assay_type": "physicochemical", "description": "Oxygenated blood drawn in an airtight syringe with GSH and EDTA (final concentrations 400 μM) by left ventricular puncture (rat) or peripherally (human) was maintained in 21% oxygen. Venous blood was reacted identically and was transferred to a hypoxia chamber under argon. Oxygen tension was measured electrochemically (Chirion). Samples underwent centrifugation (3,000 g for 5 min) followed by ultrafiltration (10K; Millipore), separation and selective ultraviolet photolysis (Jelight PS-3000-30; Laguna-Hills).\n(§2) SNOs were prepared by acid nitrosation, titrated to pH 7.4 and maintained in EDTA in the dark at −80° C. until use to prevent decomposition. SNOs were detected by reduction/chemiluminescence as previously described (Fang et al., Biochem. Biophys. Res. Commun. 252, 535-540 (1998)). Briefly, samples were injected into 100 μM CuCl, 1 mM cysteine (pH 6; 50 8C) and purged with helium (grade 5; BOC Gases). Evolved NO was measured by chemiluminescence."}, "[4]": {"assay": "Decay of CSNO isomers in rat brainstem homogenates", "assay_type": "in vitro ADME", "description": "To test the hypothesis that SNOs stimulate respiratory centers of the NTS to increase VE, the ability of endogenous SNOs to increase VE in freely behaving, conscious rats using whole-body plethysmography was examined. […] The L- and D-isomers of CSNO decayed at identical rates in rat brainstem homogenates (26% min-1 mg -1 protein each; P=not significant (NS)).\nas §2"}, "[5]": {"system": "blood pressure or heart rate", "assay": "Hemodynamic effects (blood pressure, heart rate) of SNOs", "assay_type": "in vivo", "settings": "same species"}}, "note": "“Also recorded” adds a separate entry of the source.", "data": [{"smiles": "Nc1nc2c(nc(Br)n2[C@@H]2O[C@@H]3COP(=O)(O)O[C@H]3[C@H]2O)c(=O)[nH]1", "note": "[8-bromocyclic GMP, reference compound]", "values": [{"measurement": "effect on VE", "setting": "[1]", "result": "neither excess 8-bromocyclic GMP nor glutathione had any effect"}]}, {"smiles": "N[C@@H](CSN=O)C(=O)NCC(=O)O", "note": "[CGSNO, S-Nitrosocysteinyl glycine]", "values": [{"measurement": "increase in VE (minute ventilation)", "setting": "[1]", "result": "marked increase; also recorded: equivalent increases"}, {"measurement": "VE change from baseline", "setting": "[1]", "result": "increases in VE"}, {"measurement": "onset/decay characteristics of the VE response", "setting": "[1]", "result": "identical to those observed during short exposure of the whole animal to hypoxia and return to normoxia"}, {"measurement": "SNO-stimulated VE increase after GGT inhibition", "setting": "[2]", "result": "not modified; also recorded: increases minute ventilation; also recorded: overcame this inhibition"}, {"measurement": "stability relative to GSNO", "setting": "[3]", "result": "less stable than GSNO"}]}, {"smiles": "N[C@H](CSN=O)C(=O)O", "note": "[D-CSNO, S-nitroso-D-cysteine, reference compound]", "values": [{"measurement": "increase in VE (minute ventilation)", "setting": "[1]", "result": "no effect"}, {"measurement": "VE change from baseline", "setting": "[1]", "result": "without effect"}, {"measurement": "decay rate", "setting": "[4]", "result": 26, "unit": "% min-1 mg -1 protein"}]}, {"smiles": "N[C@@H](CCC(=O)N[C@@H](CSN=O)C(=O)NCC(=O)O)C(=O)O", "note": "[GSNO, S-nitrosoglutathione]", "values": [{"measurement": "increase in VE (minute ventilation)", "setting": "[1]", "result": "equivalent increases"}, {"measurement": "VE change from baseline", "setting": "[1]", "result": "increases in VE; also recorded: dramatically increase"}, {"measurement": "onset/decay characteristics of the VE response", "setting": "[1]", "result": "identical to those for recovery from hypoxia"}, {"measurement": "SNO-stimulated VE increase after GGT inhibition", "setting": "[2]", "result": "abolished"}, {"measurement": "effects on blood pressure or heart rate (hemodynamic effects)", "setting": "[5]", "result": "no effects; also recorded: not reproduced"}]}, {"smiles": "N[C@@H](CSN=O)C(=O)O", "note": "[L-CSNO, S-nitroso-L-cysteine]", "values": [{"measurement": "increase in VE (minute ventilation)", "setting": "[1]", "result": "equivalent increases"}, {"measurement": "VE change from baseline", "setting": "[1]", "result": "increases in VE"}, {"measurement": "decay rate", "setting": "[4]", "result": 26, "unit": "% min-1 mg -1 protein"}]}, {"smiles": "N[C@H](C(=O)O)[C@@H]1CC(Cl)=NO1", "note": "[acivicin, reference compound]", "values": [{"measurement": "effect on GSNO-mediated increases in VE", "setting": "[2]; NTS pre-treatment with the inhibitor", "result": "attenuated"}, {"measurement": "effect on normal ventilatory offset (gradual return of VE to baseline after hypoxia)", "setting": "[2]; recovery from hypoxia", "result": "inhibited"}]}, {"smiles": "N[C@@H](CCC(=O)N[C@@H](CS)C(=O)NCC(=O)O)C(=O)O", "note": "[glutathione]", "values": [{"measurement": "effect on VE", "setting": "[1]", "result": "neither excess 8-bromocyclic GMP nor glutathione had any effect"}]}]}
